IC50 data for 48 compounds are collected here from patent publication US9216964B2, “Hedgehog pathway modulators” (Novartis AG, priority 2008, dated 2015).

This test deals with hedgehog signaling pathway. Nature of the test: Gli-Luc Reporter Assay for Hh Pathway Inhibition (TMHh-12 cells, pTA-8×Gli-Luc reporter). It counts as cell-based, Mouse. On the procedure: Compounds of the present invention are assayed to evaluate their capacity to inhibit the hedgehog signaling pathway.
Gli-Luc Reporter Assay for Hh Pathway Inhibition
Mouse TM3 cells (obtained from American Type Culture Collection, ATCC, Manassas, Va.) are cultured in DMEM/F12 medium (Gibco/Invitrogen, Carlsbad, Calif.) supplemented with 5% heat inactivated horse serum and 2.5% FBS (Gibco/Invitrogen, Carlsbad, Calif.), 50 unit/mL penicillin and 50 μg/mL of streptomycin (Gibco/Invitrogen, Carlsbad, Calif.) at […] with 5% CO2 in air atmosphere. TM3 cells were transfected with pTA-8×Gli-Luc reporter plasmid. A stably transfected clone termed TMHh-12 was selected. […] To evaluate the IC50s of the antagonists, 8000 TMHh-12 cells were plated into each wells in 384-well plates with 50% DMEM/F12 medium supplemented with 2% FBS. After 12 hours, Hh pathway is activated by adding recombinant mouse Shh protein (expressed in E. coli, 8 μg/mL) or by adding Smo agonists. The testing compounds are added into plates with different concentrations. After 48 hours, the firefly luciferase luciferase activities are assayed with the Bright-Glo™ Luciferase Assay System (Promega, Madison, Wis.). The IC50 is measured when the effect of the compound reduces the luminescence signal by 50%. Toxicity of these compounds are evaluated in TM3 cells using CellTiter Glo assays or by TM3-Luc cell line (a TM3 cell stably transfected with a constitutive luciferase expression vector).
(A reporter such as luciferase makes a cellular process visible.)

Setting [1] is: Mus musculus, TMHh12, Ag1.5 1 nM, read-out: Hedgehog Inhibition IC50 (nM) (Ag1.5 1 nM).
[2] abbreviates: Mus musculus, TMHh12, enzymatic and cellular assays for the inhibition of hedgehog signaling pathways, read-out: IC50 Ranges.

SMILES strings stand for the structures. Read-outs that look alike come from different tables or passages of the source. Where only a bound is given, the exact number is not on record here.

One may read the IC50 as the point on the concentration scale where inhibition reaches its midpoint. Consider `Cc1ccc(Nc2cccc3c2CCN(S(C)(=O)=O)C3)cc1-c1ccccc1` [Compound 115], for which the IC50 under setting [1] worked out at 362 nM and the IC50 under setting [2] was in the range of 100 to 1000 nM. Taken in the same sequence, the figures for `Cc1cc2c(cn1)cc(-c1cc(Nc3cccc4c3CCN(S(C)(=O)=O)C4)ccc1C)c(=O)n2C` [Compound 116] were 694 nM and 100 to 1000 nM. For the compound `Cc1ccc(Nc2cccc3c2CCN(S(C)(=O)=O)C3)cc1-c1ccc(C(C)C)cc1` [Compound 117], under setting [2], the half-inhibitory concentration (IC50) lay in the range of 100 to 1000 nM. Still for that read-out and setting: under `Cc1ccc(Nc2cccc3c2CCN(S(C)(=O)=O)C3)cc1-c1ccc(Cn2cccn2)cc1` [Compound 118] stands 100 to 1000 nM.

Regarding `Cc1ccc(Nc2cccc3c2CCN(S(C)(=O)=O)C3)cc1-c1cccc(C#N)c1` [Compound 119], the half-maximal inhibitory concentration (IC50) under setting [2] lay in the range of 10 to 100 nM. Take `Cc1nc(-c2ccc(-c3cc(Nc4cccc5c4CCN(S(C)(=O)=O)C5)ccc3C)cc2)cs1` [Compound 120]: the half-inhibitory concentration (IC50) under setting [2] fell in the range of 10 to 100 nM.

`Cc1ccc(Nc2cccc3c2CCN(S(C)(=O)=O)C3)cc1-c1ccc(-c2ccco2)cc1` [Compound 121]: the IC50 under setting [2] was 100 to 1000 nM. Same read-out and setting: under `Cc1ccc(Nc2cccc3c2CCN(S(C)(=O)=O)C3)cc1-c1ccc(F)cc1` [Compound 122] stands 100 to 1000 nM. With `Cc1ccc(Nc2cccc3c2CCN(S(C)(=O)=O)C3)cc1Oc1ccccc1` [Compound 123], the IC50 under setting [1] amounted to 738 nM and the IC50 under setting [2] is 100 to 1000 nM. In the same order, the values of `Cc1ccc(Nc2cccc3c2CCN(S(C)(=O)=O)C3)cc1-c1cnc(N(C)C)nc1` [Compound 124] are 135 nM and 100 to 1000 nM. With `Cc1ccc(Nc2nccc3c2CCN(S(C)(=O)=O)C3)cc1-c1ccc(C#N)cc1` [Compound 125], the IC50 under setting [2] is 10 to 100 nM. Still for that read-out and setting: under `CS(=O)(=O)N1CCc2c(cccc2Nc2cc(-c3nc4ccccc4[nH]3)c(Cl)cn2)C1` [Compound 126] stands 10 to 100 nM. Same read-out and setting: under `Cc1ccc(Nc2cccc3c2CCN(CC2(C)CC2)C3=O)cc1-c1nc2ccccc2[nH]1` [Compound 127] stands 10 to 100 nM; under `Cc1ccc(Nc2cccc3c2CCN(S(C)(=O)=O)C3)cc1-c1cnn(C)c1` [Compound 128], 100 to 1000 nM. Consider `Cc1ccc(Nc2cccc3c2CCN(S(C)(=O)=O)C3)cc1-c1ccc(C#N)nc1` [Compound 129], for which the IC50 runs as follows: under setting [1], 52 nM; under setting [2], 10 to 100 nM.

As to `Cc1ccc(Nc2cccc3c2CCN(S(C)(=O)=O)C3)cc1OCc1ccccc1` [Compound 130], under setting [2], the IC50 is 1 to 10 nM. On the same count and under the same terms, under `CS(=O)(=O)N1CCc2c(cccc2Nc2ccc(F)c(-c3ccc(C#N)cc3)c2)C1` [Compound 131] stands 10 to 100 nM; under `CS(=O)(=O)N1CCc2c(cccc2Nc2cccc(-c3ccc(C#N)cc3)c2)C1` [Compound 132], 10 to 100 nM. Still for that read-out and setting: under `CS(=O)(=O)N1CCc2c(ccnc2Nc2ccc(Cl)c(-c3ncc(-c4ccccc4)[nH]3)c2)C1` [Compound 133] stands 0.001 to 1 nM; under `CS(=O)(=O)N1CCc2c(cccc2Nc2ccc(Cl)c(-c3ccc(C#N)cc3)c2)C1` [Compound 134], 10 to 100 nM. Take `CNC(=O)c1cccc(-c2cc(Nc3cccc4c3CCN(S(C)(=O)=O)C4)ccc2C)c1` [Compound 135]: the IC50 is, setting by setting: under setting [1], 4180 nM; under setting [2], 1000 to 10000 nM. Taken in the same sequence, the figures for `Cc1ccc(Nc2cccc3c2CCN(S(C)(=O)=O)C3)cc1-c1ccc(C(F)(F)F)cc1` [Compound 136] were 90 nM and 10 to 100 nM. Take `Cc1ccc(Nc2cccc3c2CCN(S(C)(=O)=O)C3)cc1-c1ccc(OC(F)(F)F)cc1` [Compound 137]: the IC50 under setting [2] lay in the range of 10 to 100 nM. For the compound `Cc1ccc(Nc2cccc3c2CCN(S(C)(=O)=O)C3)cc1-c1ccc(C(=O)N(C)C)cc1` [Compound 138], the IC50 under setting [2] fell in the range of 100 to 1000 nM. With `Cc1ccc(Nc2cccc3c2CCN(S(C)(=O)=O)C3)cc1-c1ccc(CC#N)cc1` [Compound 139], the IC50 was 101 nM under setting [1] and 100 to 1000 nM under setting [2].

On to `Cc1ccc(Nc2cccc3c2CCN(S(C)(=O)=O)C3)cc1-c1cccc(C(=O)N2CCCC2)c1` [Compound 140], for which the IC50 was 2940 nM under setting [1] and 1000 to 10000 nM under setting [2]. Regarding `COC(=O)c1ccc(-c2cc(Nc3cccc4c3CCN(S(C)(=O)=O)C4)ccc2C)cc1` [Compound 141], the IC50 under setting [2] lay within 100 to 1000 nM. The same measure, in the same setting: under `Cc1ccc(Nc2cccc3c2CCN(S(C)(=O)=O)C3)cc1-c1ccc(C(N)=O)cc1` [Compound 142] stands 100 to 1000 nM. Turning to `Cc1ccc(Nc2cccc3c2CCN(S(C)(=O)=O)C3)cc1-c1ccc(-c2nnn[nH]2)cc1` [Compound 143], the IC50 under setting [1] is above 10000 nM and the IC50 under setting [2] was above 10000 nM. Take `Cc1ccc(Nc2cccc3c2CCN(S(C)(=O)=O)C3)cc1-c1ccc(C(=O)O)cc1` [Compound 144]: the IC50 under setting [2] lay within 1000 to 10000 nM. As for `Cc1ccc(Nc2cccc3c2CCN(S(C)(=O)=O)C3)cc1-c1ccc(C(=O)NCCO)cc1` [Compound 145], under setting [2], the half-inhibitory concentration (IC50) lay in the range of 100 to 1000 nM. The same measure, in the same setting: under `Cc1ccc(Nc2cccc3c2CCN(S(C)(=O)=O)C3)cc1-c1ccc(C(=O)NCC(O)CO)cc1` (centres unmarked) [Compound 146] stands 1000 to 10000 nM. Same read-out and setting: under `Cc1ccc(Nc2cccc3c2CCN(S(C)(=O)=O)C3)cc1-c1ccc(C(=O)N(CCO)CCO)cc1` [Compound 147] stands 1000 to 10000 nM.

On to `Cc1ccc(Nc2cccc3c2CCN(S(C)(=O)=O)C3)cc1-c1ccc(C(=O)NCC(C)O)cc1` (centres unmarked) [Compound 148], for which the IC50 under setting [2] was in the range of 100 to 1000 nM. In the case of `COc1ccc(Nc2cccc3c2CCN(S(C)(=O)=O)C3)cc1-c1ccc(C#N)cc1` [Compound 149], the IC50 under setting [2] fell in the range of 100 to 1000 nM. Take `CS(=O)(=O)N1CCc2c(cccc2Nc2ccc(OC(F)(F)F)c(-c3ccc(C#N)cc3)c2)C1` [Compound 150]: under setting [2], the IC50 lay within 1000 to 10000 nM.

For the compound `Cc1ccc(Nc2cccc3c2CCN(S(C)(=O)=O)C3)cc1-c1cc2ccccc2[nH]1` [Compound 151], the IC50 under setting [2] lay in the range of 10 to 100 nM.

Regarding `Cc1ccc(Nc2cccc3c2CCN(S(C)(=O)=O)C3)cc1-c1cc2ccccc2n1C` [Compound 152], the IC50 under setting [2] fell in the range of 10 to 100 nM. Consider `Cc1ccc(Nc2cccc3c2CCN(S(C)(=O)=O)C3)cc1-c1ccc(C(F)(F)F)cn1` [Compound 153], for which the half-maximal inhibitory concentration (IC50) (enzymatic and cellular assays for the inhibition of hedgehog signaling pathways, read-out: IC50 Ranges) fell in the range of 0.001 to 1 nM. As to `Cc1ccc(Nc2cccc3c2CCN(S(C)(=O)=O)C3)cc1-c1ccc(C#N)cn1` [Compound 154], the IC50 under setting [2] was 1 to 10 nM. Still for that read-out and setting: under `CS(=O)(=O)N1CCc2c(cccc2Nc2ccc(C#N)c(-c3ccc(C#N)cc3)c2)C1` [Compound 155] stands 100 to 1000 nM. On to `Cc1ccc(Nc2cccc3c2CCN(S(C)(=O)=O)C3)cc1-c1ccc(CO)cc1` [Compound 156], for which the IC50 under setting [1] came to 564 nM and the IC50 under setting [2] was in the range of 100 to 1000 nM. `Cc1ccc(Nc2cccc3c2CCN(S(C)(=O)=O)C3)cc1-c1ccc(CNCC(O)CO)cc1` (centres unmarked) [Compound 157]: under setting [2], the IC50 was 1000 to 10000 nM.

In the case of `Cc1ccc(Nc2cccc3c2CCN(S(C)(=O)=O)C3)cc1-c1ccc(CNCCO)cc1` [Compound 158], under setting [2], the IC50 was 100 to 1000 nM. As to `Cc1ccc(Nc2cccc3c2CCN(S(C)(=O)=O)C3)cc1C(=O)Nc1ccccc1` [Compound 159], the IC50 by setting is: under setting [1], 0.1 nM; under setting [2], 0.001 to 1 nM. Taken in the same sequence, the figures for `Cc1ccc(Nc2cccc3c2CCN(S(C)(=O)=O)C3)cc1C(=O)Nc1ccc(C#N)cc1` [Compound 160] were 1 nM and 0.001 to 1 nM. In the case of `COc1ccc(NC(=O)c2cc(Nc3cccc4c3CCN(S(C)(=O)=O)C4)ccc2C)cc1` [Compound 161], the 50% inhibitory concentration (IC50) under setting [2] fell in the range of 0.001 to 1 nM.

Take `Cc1ccc(Nc2cccc3c2CCN(S(C)(=O)=O)C3)cc1C(=O)Nc1ccccn1` [Compound 162]: the IC50 by setting is: under setting [1], 2.1 nM; under setting [2], 1 to 10 nM.
